Columns and labels:
[1] = over one year; cited from earlier work
gut microbiota = assay: Oral gavage of non-formulated peroxide, 16S rRNA sequencing of fecal samples (Example 7); type: in vivo, Sprague Dawley lean rats; conditions: rats, oral gavage three times daily in acidified water, total dose 600 mg/kg body weight, 3 days
Method: (§1) 6-7 week old Sprague Dawley lean rats were orally gavaged three times daily either with carbamide peroxide dissolved in acidified water as the treatment arm (total dose=600 mg/kg body weight) or with acidified water alone as the control arm (12 […] per arm) for 3 days. Gavage solution was prepared immediately before oral gavaging was performed. Each rat was fed a normal chow diet throughout (Research Diets) and kept under 12 hr-12 hr light-dark cycle in its own metabolic cage. Fresh fecal samples were collected at day 0 (basal measurement, before dosing start) and at the end of day 3 (after the final dose) and immediately stored at −80 C. Later, 16S rRNA sequencing was performed to measure relative abundance of different taxa in the stool samples. Body weight and food intake were measured daily.

[2] = Oral gavage of non-formulated peroxide, body weight and food intake (Example 7); type: in vivo, Sprague Dawley lean rats; conditions: rats, oral gavage three times daily in acidified water, total dose 600 mg/kg body weight, 3 days
Method: as §1

Structure (SMILES)	weight loss [1]	change in gut microbiota composition between Day 0 and Day 3, treatment arm and control arm (gut microbiota)	body weight, treatment versus control arm [2]	food intake, treatment versus control arm [2]
CC(C)(N)Cc1ccccc1 [Phentermine]	4-5%	–	–	–
CCCCCCCCCCC[C@@H](C[C@@H]1OC(=O)[C@H]1CCCCCC)OC(=O)[C@H](CC(C)C)NC=O [Xenical]	3-4%	–	–	–
NC(N)=O.OO [carbamide peroxide]	–	No significant change	no significant differences	no significant differences

From patent US11179356B2, “Methods and compositions to modulate the gut microbiota and to manage weight” (Xeno Biosciences Inc., priority 2015, dated 2021)
